Measurements reported in article PMC10748125 (Viruses, 2023).

Legend:
in vitro = conditions: human
HCoV-NL63 [1] = test: Viral yield reduction (VYR) assay, HCoV-NL63 in Caco-2 cells; conditions: read-out: EC50 (μM) HCoV-NL63, progeny virus 24 h post-infection, mean ± SD
HCoV-OC43 = test: Viral yield reduction (VYR) assay, HCoV-OC43 in HCT-8 cells; conditions: read-out: EC50 (μM) HCoV-OC43, progeny virus 24 h post-infection, mean ± SD
HCoV-NL63 [2] = test: Time-of-addition assay; assay type: cell-based
HCoV-229E = test: Viral yield reduction (VYR) assay, HCoV-229E in MRC-5 cells; conditions: read-out: EC50 (μM) HCoV-229E, progeny virus 24 h post-infection, mean ± SD
[3] = Cytotoxicity assay (CCK-8), CRFK; assay type: cell-based, feline; conditions: cat, CRFK cells; Figure 1C CCoV plot label; read-out: CRFK CC50 (label inside plot)
[4] = Cytotoxicity assay (CCK-8), Caco-2; assay type: cell-based; conditions: human, CCK-8, 48 h treatment
MRC-5 cells = conditions: human
[5] = Cytotoxicity assay (CCK-8), HCT-8; assay type: cell-based; conditions: human, HCT-8 cells; CCK-8, 48 h treatment
[6] = Cytotoxicity assay (CCK-8), NCTC clone 929; assay type: cell-based, murine; conditions: mouse, NCTC clone 929 cells; Figure 1C MHV plot label; read-out: NCTC clone CC50 (label inside plot)
[7] = 2 μM VV116, 2 μM Remdesivir, 300 μg/mL heparan sulfate, MOI 0.1, 24 h post-infection

## CCC(CC)COC(=O)[C@H](C)N[P@](=O)(OC[C@H]1O[C@@](C#N)(c2ccc3c(N)ncnn23)[C@H](O)[C@@H]1O)Oc1ccccc1 [Remdesivir]
In vitro
  CC50: > 100 µM
HCoV-NL63 [1]
  EC50: 0.495 ± 0.01 µM
HCoV-OC43
  EC50: 0.069 ± 0.001 µM
HCoV-NL63 [2]; 2 μM Remdesivir, compared with VV116
  Time-of-addition result overall: comparable to that obtained for VV116
HCoV-229E
  EC50: 0.056 ± 0.002 µM
[3]
  CC50 at 48 h: > 100 µM
[4]
  CC50 at 48 h: > 100 µM
MRC-5 cells
  CC50: > 100 µM
[5]
  CC50 at 48 h: > 100 µM
[6]
  CC50 at 48 h: > 100 µM

## heparan sulfate
HCoV-NL63 [2]; [7]
  Antiviral activity when added at the post-entry phase (NP Western blot): abolished
  Antiviral activity when added during the entry phase (NP Western blot): demonstrated antiviral activity
